Legend:
Assay type in all cases: biochemical
Renin = target: T1, Renin (Homo sapiens, UniProt P00797); assay: Fluorescence polarization assay of cleavage of FITC-angiotensinogen by Renin; conditions: inhibitor at final concentration 10 uM
T1 sequence (P00797 67-406): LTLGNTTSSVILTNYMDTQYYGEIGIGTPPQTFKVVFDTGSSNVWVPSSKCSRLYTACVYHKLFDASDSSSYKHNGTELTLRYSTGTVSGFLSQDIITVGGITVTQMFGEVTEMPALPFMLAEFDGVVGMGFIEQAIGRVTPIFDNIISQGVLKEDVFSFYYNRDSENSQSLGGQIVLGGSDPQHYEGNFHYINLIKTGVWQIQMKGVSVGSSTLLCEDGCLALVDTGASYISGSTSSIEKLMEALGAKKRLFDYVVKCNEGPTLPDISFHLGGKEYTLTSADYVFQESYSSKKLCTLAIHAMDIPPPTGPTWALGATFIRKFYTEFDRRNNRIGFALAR
Method: Cleavage of FITC-angiotensinogen by Renin produces two products: FITC-AAGCDRVYIHPFHL (FITC-angiotensin) and angiotensinogen protein. To initiate the cleavage reaction, 1 ul Renin (0.1 mg/ml) stock solution may be added to 100 ul FITC-angiotensinogen in 20 mM Tris-HCL, PH 8.5. The final concentration of FITC-angiotensingen may be about 1 uM. […] This confirms the specific cleavage of FITC-angiotensinogen by Renin.
An alternative strategy to label the full length angtensinogen is to delete 16 residues from the N-terminus of angtensinogen. This shorted angtensinogen has a Cys at its N-terminal end and is fused to sumo. Using the same protocol as described above, this fusion protein is expressed, purified and cleaved by Sumo protease to produce the N-terminal 16 residue deleted angtensinogen. Referring to FIG. 7, ligation of the N-terminal 16 residue deleted angtensinogen to the FITC-DRVYIHPFHLVIHNEST-thioester, a slightly different version of FITC-angiotensinogen is produced. […] Cleavage of this FITC-angiotensinogen by Renin may be measured by recording fluorescence polarization signal as a function of time, as shown in FIG. 8. […] This proves that the FITC-angiotensinogen may be used as a substrate for Renin activity assay by recording the fluorescence polarization and the assay may be used to identify its inhibitors.

BACE = target: T2, BACE (Homo sapiens, UniProt P56817); assay: Fluorescence polarization assay of cleavage of APP365-699-[5-TAMRA] by BACE; conditions: inhibitor included in the cleavage reaction; FIG. 10 Trace B
T2 construct: made in house; host or cells: E. coli
From the text: Referring to FIGS. 9-11, in this example Beta-secretase (BACE) is one of the two proteases that cleave amyloid precursor protein (APP) to produce amyloid peptide 1-42. Human APP is a 733 residue protein. Full length of APP is consisted of several domains. BACE cleaves APP between residue 671 and 672. In this example, a fluorescence dye is specifically conjugated to the C-terminal end of APP365-699 that contains two independent folded domains. Gene encoding APP365-699 is fused to the N-terminal end of intein. After MESNA mediated self cleavage between APP365-699 and intein, a thioester group, is added to the C-terminal end of APP365-699. A fluorescence dye conjugated small peptide, CysGlySerLys-[5-TAMRA], is then ligated to the C-terminal end of APP365-699 to produce fluorescent dye labeled APP365-699:
As a result, fluorescence polarization of 5-TAMRA reduces. […] It proves that APP365-699-[5-TAMRA] may be used as a substrate for BACE activity assay by recording the fluorescence polarization. […] Thus, APP365-699-[5-TAMRA] may be used as a substrate for BACE activity assay by recording the fluorescence polarization and the assay may be used to identify its inhibitors.

ADAM 17 [1] = target: ADAM 17 (Homo sapiens, UniProt P01375); assay: Fluorescence polarization assay of cleavage of N-terminal FITC labeled pro-TNF-α by Adam 17
Method: (§1) Cleavage of N-terminal FITC labeled pro-TNF-α was performed by a fluorescence polarization assay. The assay was performed with a SpectraMax fluorescence plate reader in 96-well format. In a typical assay, 1 μM substrate protein was preincubated at 37° C. for 20 minutes. The reaction was initiated by addition of Adam 17 to the substrate solution. The final concentration of Adam 17 was 48 nM. The total reaction volume was […]. The reaction buffer was 50 mM Tris-HCl, pH 7.5, 2.5 μM ZnCl2, 0.005% Brij-35. In inhibition assays, the inhibitor was preincubated with its target protein for 30 minutes before reaction was initiated.
(§2) The concentration of product was calculated according to equation (1): [P]=(F[S]−Fs[S])/(Fp−Fs); where [P] is the concentration of product, F is the experimental recorded fluorescence polarization value, [S] is the total concentration of substrate and Fs and Fp are fluorescence polarization values of substrate and product, respectively. Fp is determined from a synthetic peptide with an identical sequence to the N-terminal fragment of the cleavage products.
(§3) To initiate the cleavage reaction, 1 ul ADAM 17 (0.1 mg/ml) stock solution may be added to 100 ul FITC-[pro-TNF-α] in 20 mM Tris-HCL, PH 8.5. The final concentration of FITC-[pro-TNF-α] is about 1 uM.

ADAM 17 [2] = target: ADAM 17 (Homo sapiens, UniProt P78536); assay: Cleavage of peptide substrate by Adam 17 (HPLC); conditions: HPLC results
Method: Cleavage of peptide substrates: Two peptide substrates were used in this study. PS1 is Mca-PLAQAV-Dpa-RSSSR-NH2 (22), a fluorescence resonance energy transfer based substrate, the activity was measured by fluorescence intensity change upon cleavage. PS2 may be the non-fluorescence version of PS1. For PS1, in a typical assay, 10 μM substrate was preincubated at 37° C. for 20 minutes. The reaction was initiated by addition of Adam 17 to the substrate solution at the final concentration of 16 nM. The total reaction volume may be 100 μl. The reaction buffer may be 50 mM Tris-HCl, pH 9.0, 2.5 μM ZnCl2, 0.005% Brij-35. In inhibition assays, inhibitor was preincubated with peptide substrate for 30 minutes. For PS2, reaction conditions were identical to PS1.
Referring to FIGS. 13 and 14, TNF-α Inhibitor is a small molecule that blocks interaction of TNF-α with its receptor by binding to TNF-α. This compound may affect the activity of Adam 17 to convert pro-TNF-α to TNF-α. Referring to FIG. 13, it is shown that at a concentration of about 200 μM, TNF-α inhibitor reduces the reaction rate by about 40%, which is validated by the electrophoresis assay results shown in FIG. 14. […] Based on the established direct binding between the compound and TNFα, it is believed that the inhibition effect is caused by the interaction of the compound to pro-TNFα.

ADAM 17 [3] = assay: Fluorescence polarization assay of cleavage of N-terminal FITC labeled pro-TNF-α by Adam 17; conditions: inhibitor at final concentration 10 uM; FIG. 3 Trace B
Method: as §1, §2, §3

ADAM 17 (Homo sapiens, UniProt P01375), sequence (P01375 with tags, fused parts or gaps): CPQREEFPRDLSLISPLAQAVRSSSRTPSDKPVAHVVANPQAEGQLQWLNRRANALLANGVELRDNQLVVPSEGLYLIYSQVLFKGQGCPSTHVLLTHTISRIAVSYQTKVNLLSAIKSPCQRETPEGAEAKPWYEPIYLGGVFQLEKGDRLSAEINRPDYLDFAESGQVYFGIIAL
T2 sequence (P56817 46-501): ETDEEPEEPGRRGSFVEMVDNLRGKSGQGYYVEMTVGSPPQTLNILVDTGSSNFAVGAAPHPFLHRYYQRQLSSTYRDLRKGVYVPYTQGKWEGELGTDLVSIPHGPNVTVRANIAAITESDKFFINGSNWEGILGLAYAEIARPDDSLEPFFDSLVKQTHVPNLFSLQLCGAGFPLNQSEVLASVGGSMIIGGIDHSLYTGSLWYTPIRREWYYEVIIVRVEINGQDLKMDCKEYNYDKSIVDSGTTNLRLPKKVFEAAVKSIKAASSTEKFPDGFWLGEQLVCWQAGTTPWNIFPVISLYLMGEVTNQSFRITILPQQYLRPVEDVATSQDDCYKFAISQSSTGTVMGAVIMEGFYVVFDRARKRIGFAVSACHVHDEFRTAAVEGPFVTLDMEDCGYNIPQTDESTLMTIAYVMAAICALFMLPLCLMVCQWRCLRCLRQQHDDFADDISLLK
ADAM 17 (Homo sapiens, UniProt P78536), sequence (P78536 215-824): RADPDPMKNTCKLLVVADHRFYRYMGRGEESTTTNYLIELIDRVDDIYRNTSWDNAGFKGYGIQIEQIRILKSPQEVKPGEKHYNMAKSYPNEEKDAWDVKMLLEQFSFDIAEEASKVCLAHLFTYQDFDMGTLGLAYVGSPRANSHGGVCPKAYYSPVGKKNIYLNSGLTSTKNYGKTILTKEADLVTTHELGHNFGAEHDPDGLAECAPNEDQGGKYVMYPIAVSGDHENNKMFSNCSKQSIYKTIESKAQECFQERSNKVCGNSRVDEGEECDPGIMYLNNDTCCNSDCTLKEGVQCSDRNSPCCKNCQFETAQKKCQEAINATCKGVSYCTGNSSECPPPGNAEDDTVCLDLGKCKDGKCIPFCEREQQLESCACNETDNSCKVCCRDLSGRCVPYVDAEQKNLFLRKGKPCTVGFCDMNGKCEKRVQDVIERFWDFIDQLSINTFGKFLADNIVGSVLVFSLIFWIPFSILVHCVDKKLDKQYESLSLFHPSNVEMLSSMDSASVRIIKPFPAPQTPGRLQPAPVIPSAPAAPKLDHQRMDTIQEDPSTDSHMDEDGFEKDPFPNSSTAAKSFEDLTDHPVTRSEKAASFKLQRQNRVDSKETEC

Compound: RRPFH-Sta-IHK
- fluorescence polarization change during cleavage of FITC-angiotensinogen by Renin (Renin; FITC-angiotensinogen made from N-terminal 16 residue deleted angiotensinogen, FIG. 8 Trace B): little change
- fluorescence polarization change during cleavage of FITC-angiotensinogen by Renin (Renin; full length FITC-angiotensinogen, FIG. 6 Trace B): little change

Compound: KTEEISEVN-Sta-VAEF
- fluorescence polarization during cleavage of APP365-699-[5-TAMRA] by BACE (BACE): remains unchanged

Compound: Cc1cc2occ(CN(C)CCN(C)Cc3cn(-c4cccc(C(F)(F)F)c4)c4ccccc34)c(=O)c2cc1C [TNF-α inhibitor, 6,7-Dimethyl-3-((methyl-(2-(methyl-(1-(3-trifluoromethyl-phenyl)-1H-indol-3-ylmethyl)-amino)-ethyl)-amino)-methyl)-chromen-4-one]
- cleavage rate of FITC-(pro-TNF-α) by ADAM 17 (ADAM 17 [1]; 200 uM compound pre-incubated with FITC-(pro-TNF-α) for 30 minutes): reduced
- reduction of the reaction rate (conversion of pro-TNF-α to TNF-α by Adam 17) (ADAM 17 [1]; inhibitor at about 200 μM, FIG. 13): about 40%
- cleavage activity of Adam 17 to the peptide substrate (ADAM 17 [2]): not affected

Compound: CNC(=O)[C@H](Cc1c[nH]c2ccccc12)NC(=O)[C@@H](CC(=O)NO)CC(C)C [N-[(2R)-2-(Hydroxamidocarbonylmethyl)-4-methylpentanoyl]-L-tryptophan methylamide]
- fluorescence polarization change during cleavage of FITC-[pro-TNF-α] by ADAM 17 (ADAM 17 [3]): little change

— patent publication US9708638B1, “Protease assay method using site-specific fluorescence dye labeled protein as substrate” (EZBiolab, priority 2014, dated 2017)
